According to ChEMBL document CHEMBL3885861, “Open TG-GATES”:

Species: Rattus norvegicus
Test: Open TG-GATES - Regimen: Single
Type: toxicity, organism-based, Sprague-Dawley
Set-up: regimen Single, gender Male, age 6 weeks
Conditions: in vivo, po, 0 mg/kg, route gavage, dose level Control; for APTT / Bas / Eos / Fbg / Hb / Ht / Lym / MCH / MCHC / MCV / Mono / Neu / PT / Plat / RBC / Ret / WBC: tissue Blood; for KIDNEY_L / KIDNEY_R / KIDNEY_TOTAL: tissue Kidney; for LIVER: tissue Liver; for A/G / ALP / ALT / AST / BUN / CRE / Ca / Cl / DBIL / GLC / IP / K / LDH / Na / PL / RALB / TBIL / TC / TG / TP / gamma-GTP: tissue Plasma

CCC1(c2ccccc2)C(=O)NC(=O)NC1=O [PHENOBARBITAL]
TERMINAL_BW (3 h): 221.7 g
APTT (3 h): 19.3 s
Bas (3 h): 0.4%
Eos (3 h): 1%
Fbg (3 h): 219.2 mg/dL
Hb (3 h): 13.6 g/dL
Ht (3 h): 37.5%
Lym (3 h): 72.8%
MCH (3 h): 21.7 pg
MCHC (3 h): 36.1%
MCV (3 h): 60.2 fL
Mono (3 h): 3%
Neu (3 h): 21.6%
PT (3 h): 11.9 s
Plat (3 h): 113.7 x10_4/uL
RBC (3 h): 623.8 x10_4/ul
Ret (3 h): 7.9%
WBC (3 h): 110.8 x10_2/uL
KIDNEY_L (3 h): 1.1 g
KIDNEY_R (3 h): 1 g
KIDNEY_TOTAL (3 h): 2.1 g
LIVER (3 h): 10.2 g
A/G (3 h): 1.6
ALP (3 h): 939.8 IU/L
ALT (3 h): 38.4 IU/L
AST (3 h): 73.4 IU/L
BUN (3 h): 10.8 mg/dL
CRE (3 h): 0.4 mg/dL
Ca (3 h): 10.6 mg/dL
Cl (3 h): 103.4 meq/L
DBIL (3 h): 0.068 mg/dL
GLC (3 h): 203.2 mg/dL
IP (3 h): 9.4 mg/dL
K (3 h): 4.2 meq/L
LDH (3 h): 162.6 IU/L
Na (3 h): 141.6 meq/L
PL (3 h): 140.4 mg/dL
RALB (3 h): 3.3 g/dL
TBIL (3 h): 0.1 mg/dL
TC (3 h): 78 mg/dL
TG (3 h): 55 mg/dL
TP (3 h): 5.3 g/dL
gamma-GTP (3 h): 0.8 IU/L
TERMINAL_BW (6 h): 218.3 g
APTT (6 h): 19 s
Bas (6 h): 0.2%
Eos (6 h): 1%
Fbg (6 h): 227.8 mg/dL
Hb (6 h): 14 g/dL
Ht (6 h): 39.1%
Lym (6 h): 73.6%
MCH (6 h): 21.4 pg
MCHC (6 h): 35.9%
MCV (6 h): 59.5 fL
Mono (6 h): 3.2%
Neu (6 h): 21.4%
PT (6 h): 12.2 s
Plat (6 h): 119.4 x10_4/uL
RBC (6 h): 656.8 x10_4/ul
Ret (6 h): 8.1%
WBC (6 h): 105 x10_2/uL
KIDNEY_L (6 h): 1 g
KIDNEY_R (6 h): 1 g
KIDNEY_TOTAL (6 h): 2 g
LIVER (6 h): 9.6 g
A/G (6 h): 1.6
ALP (6 h): 907.4 IU/L
ALT (6 h): 34.4 IU/L
AST (6 h): 70.2 IU/L
BUN (6 h): 9.8 mg/dL
CRE (6 h): 0.4 mg/dL
Ca (6 h): 10.8 mg/dL
Cl (6 h): 103.8 meq/L
DBIL (6 h): 0.074 mg/dL
GLC (6 h): 193.2 mg/dL
IP (6 h): 9.3 mg/dL
K (6 h): 4 meq/L
LDH (6 h): 167.6 IU/L
Na (6 h): 142 meq/L
PL (6 h): 135.6 mg/dL
RALB (6 h): 3.3 g/dL
TBIL (6 h): 0.1 mg/dL
TC (6 h): 73.8 mg/dL
TG (6 h): 65.4 mg/dL
TP (6 h): 5.4 g/dL
gamma-GTP (6 h): 1 IU/L
TERMINAL_BW (9 h): 217.1 g
APTT (9 h): 19 s
Bas (9 h): 0.4%
Eos (9 h): 1.2%
Fbg (9 h): 223.8 mg/dL
Hb (9 h): 13.6 g/dL
Ht (9 h): 37.9%
Lym (9 h): 77%
MCH (9 h): 21.5 pg
MCHC (9 h): 36%
MCV (9 h): 59.8 fL
Mono (9 h): 2.8%
Neu (9 h): 18%
PT (9 h): 12.3 s
Plat (9 h): 127.9 x10_4/uL
RBC (9 h): 634.2 x10_4/ul
Ret (9 h): 7.7%
WBC (9 h): 93.6 x10_2/uL
KIDNEY_L (9 h): 1 g
KIDNEY_R (9 h): 1 g
KIDNEY_TOTAL (9 h): 2 g
LIVER (9 h): 9 g
A/G (9 h): 1.6
ALP (9 h): 763.4 IU/L
ALT (9 h): 31.4 IU/L
AST (9 h): 63.6 IU/L
BUN (9 h): 9.4 mg/dL
CRE (9 h): 0.3 mg/dL
Ca (9 h): 10.6 mg/dL
Cl (9 h): 103.8 meq/L
DBIL (9 h): 0.062 mg/dL
GLC (9 h): 202 mg/dL
IP (9 h): 10.4 mg/dL
K (9 h): 3.9 meq/L
LDH (9 h): 122.2 IU/L
Na (9 h): 142.2 meq/L
PL (9 h): 129.8 mg/dL
RALB (9 h): 3.4 g/dL
TBIL (9 h): 0.1 mg/dL
TC (9 h): 70.6 mg/dL
TG (9 h): 35.4 mg/dL
TP (9 h): 5.4 g/dL
gamma-GTP (9 h): 1.2 IU/L
TERMINAL_BW (24 h): 234.1 g
APTT (24 h): 20.3 s
Bas (24 h): 0.6%
Eos (24 h): 1%
Fbg (24 h): 221.2 mg/dL
Hb (24 h): 13.4 g/dL
Ht (24 h): 37.5%
Lym (24 h): 77.6%
MCH (24 h): 21 pg
MCHC (24 h): 35.7%
MCV (24 h): 58.9 fL
Mono (24 h): 2.4%
Neu (24 h): 18%
PT (24 h): 11.7 s
Plat (24 h): 132.6 x10_4/uL
RBC (24 h): 637.2 x10_4/ul
Ret (24 h): 7.4%
WBC (24 h): 98.6 x10_2/uL
KIDNEY_L (24 h): 1.1 g
KIDNEY_R (24 h): 1.1 g
KIDNEY_TOTAL (24 h): 2.2 g
LIVER (24 h): 11.3 g
A/G (24 h): 1.6
ALP (24 h): 911.2 IU/L
ALT (24 h): 35.8 IU/L
AST (24 h): 70 IU/L
BUN (24 h): 16.2 mg/dL
CRE (24 h): 0.4 mg/dL
Ca (24 h): 10.8 mg/dL
Cl (24 h): 103.2 meq/L
DBIL (24 h): 0.062 mg/dL
GLC (24 h): 188.4 mg/dL
IP (24 h): 7.6 mg/dL
K (24 h): 4 meq/L
LDH (24 h): 171.8 IU/L
Na (24 h): 142 meq/L
PL (24 h): 143 mg/dL
RALB (24 h): 3.4 g/dL
TBIL (24 h): 0.1 mg/dL
TC (24 h): 72.2 mg/dL
TG (24 h): 77.4 mg/dL
TP (24 h): 5.6 g/dL
gamma-GTP (24 h): 1.4 IU/L
